{
  "source": "patent US11149036B2",
  "about": "“3-(1H-pyrazol-4-yl)pyridine allosteric modulators of the M4 muscarinic acetylcholine receptor” (Merck Sharp & Dohme Corp., priority 2017, dated 2021)",
  "molecular_target": "T1, human M4 muscarinic acetylcholine receptor (Homo sapiens, UniProt P08173)",
  "T1 construct": "expressed in transfected cells; host or cells: CHO-K1",
  "T1 sequence (P08173 1-479)": "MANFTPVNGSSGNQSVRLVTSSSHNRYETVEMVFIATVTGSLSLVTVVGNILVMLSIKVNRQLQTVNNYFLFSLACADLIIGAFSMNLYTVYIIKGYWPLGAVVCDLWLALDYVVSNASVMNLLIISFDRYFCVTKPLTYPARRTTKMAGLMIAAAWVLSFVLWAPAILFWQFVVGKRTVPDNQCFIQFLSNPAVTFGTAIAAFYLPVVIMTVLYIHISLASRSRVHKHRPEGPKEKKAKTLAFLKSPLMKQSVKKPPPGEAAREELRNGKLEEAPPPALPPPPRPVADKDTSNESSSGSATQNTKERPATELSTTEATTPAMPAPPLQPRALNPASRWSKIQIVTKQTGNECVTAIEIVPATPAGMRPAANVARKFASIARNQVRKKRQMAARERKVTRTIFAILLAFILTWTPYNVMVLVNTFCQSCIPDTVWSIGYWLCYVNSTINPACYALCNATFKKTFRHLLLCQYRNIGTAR",
  "assay": "human FLIPR-based M4 PAM assay (CHO-K1 cells with human M4 receptor and Gaqi5, calcium dye fluorescence)",
  "assay_type": "cell-based",
  "conditions": "inflection point (IP) of dose response curve, acetylcholine added at 20% of maximum response, read-out: M4 FLIPPR Hu IP",
  "method": "(§1) In a typical experiment the M4 muscarinic acetylcholine receptor modulating activity of the compounds of the present invention was determined in accordance with the following experimental method. CHO-K1 cells stably transfected with human M4 receptor and chimeric G-protein Gaqi5 (Coward P, et al., Analytical Biochemistry, 270:242-248 (1999)) are thawed from liquid N2 storage, resuspended in growth medium, plated in black, clear bottom 384 well plates, and incubated 16-20 hours at 37° C., 5% CO2. On the day of assay, growth medium is removed, the cells are washed 2 times with wash buffer, and cells are incubated in dye loading buffer at 37° C., 5% CO2 for ˜1 hour. Following dye loading the cell plates are placed in a FLIPR Tetra instrument and while monitoring dye fluorescence (excitation 470-495 […]), 10 uL of test substance at increasing concentrations is added, and fluorescence values are recorded for 4 min. Next, 10 uL of acetylcholine is added (final concentration calculated so as to achieve 20% of the maximum acetycholine response), and the fluorescence reading is continued for 3.5 min. In some cases, a third addition of acetylcholine (final concentration calculated to achieve 70% of the maximal acetylcholine response) is performed. The resulting dose response curves are fit to a 4 parameter logistic equation and the final result is determined as the inflection point (IP) of the curve\nas §1, with “CHO-K1” for “In a typical experiment the M4 muscarinic acetylcholine receptor modulating activity of the compounds of the present invention was determined in accordance with the following experimental method. CHO-K1”, “Gaqi5” for “Gaqi5 (Coward P, et al., Analytical Biochemistry, 270:242-248 (1999))”, “performed.” for “performed. The resulting dose response curves are fit to a 4 parameter logistic equation and the final result is determined as the inflection point (IP) of the curve”",
  "data": [
    {"smiles": "N#Cc1ccc(-c2cnn(CC3CCC(F)C3)c2)c(-c2ccc3cccnc3c2)n1", "note": "(single isomer, unassigned) [compound 146, 5-(1-(((1R,3S) or (1S,3R)-3-fluoro-cyclopentyl)methyl)-1H-pyrazol-4-yl)-6-(quinolin-7-yl)picolinonitrile]", "values": [
      {"measurement": "EC50", "result": 50, "unit": "nM"}
    ]},
    {"smiles": "COc1cc2ccc(-c3nc(C)ccc3-c3cnn(CC4(C)CCC(=O)C4)c3)cc2nn1", "note": "(single isomer, unassigned; isomer a) [Example 149, 3-((4-(2-(3-methoxycinnolin-7-yl)-6-methylpyridin-3-yl)-1H-pyrazol-1-yl)methyl)-3-methylcyclopentan-1-one isomer A]", "values": [
      {"measurement": "EC50", "result": 200, "unit": "nM"}
    ]},
    {"smiles": "COc1cc2ccc(-c3nc(C)ccc3-c3cnn(CC4(C)CCC(F)(F)C4)c3)cc2nn1", "note": "(single isomer, unassigned; isomer b) [Example 151, (S or R)-7-(3-(1-((3,3-difluoro-1-methylcyclo-pentyl)methyl)-1H-pyrazol-4-yl)-6-methylpyridin-2-yl)-3-methoxycinnoline isomer B]", "values": [
      {"measurement": "EC50", "result": 30, "unit": "nM"}
    ]},
    {"smiles": "Cc1ccc(-c2cnn(CC3(F)CCCC3)c2)c(-c2ccc3c(c2)C(=O)N(C)C3)n1", "note": "[Example 1, 6-(3-(1-((1-fluorocyclopentyl)methyl)-1H-pyrazol-4-yl)-6-methylpyridin-2-yl)-2-methylisoindolin-1-one]", "values": [
      {"measurement": "EC50", "result": 17, "unit": "nM"}
    ]},
    {"smiles": "Cc1cn2ccc(-c3nc(C#N)ccc3-c3cnn(CC4(F)CCCC4)c3)cc2n1", "note": "[Example 3, 5-(1-((1-fluorocyclopentyl)methyl)-1H-pyrazol-4-yl)-6-(2-methylimidazo[1,2-a]pyridin-7-yl)picolinonitrile]", "values": [
      {"measurement": "EC50", "result": 12, "unit": "nM"}
    ]},
    {"smiles": "Cc1cn2ccc(-c3ncccc3-c3cnn(CC4C[C@H](F)[C@@H](F)C4)c3)cc2n1", "note": "[Example 4, 7-(3-(1-(((3S,4S)-3,4-difluorocyclopentyl)methyl)-1H-pyrazol-4-yl)pyridin-2-yl)-2-methylimidazo[1,2-a] pyridine]", "values": [
      {"measurement": "EC50", "result": 63, "unit": "nM"}
    ]},
    {"smiles": "Cc1cn2ccc(-c3ncccc3-c3cnn(CC4C[C@@H](F)[C@H](F)C4)c3)cc2n1", "note": "[Example 5, 7-(3-(1-(((3R,4R)-3,4-difluorocyclopentyl)methyl)-1H-pyrazol-4-yl)pyridin-2-yl)-2-methylimidazo[1,2-a]pyridine]", "values": [
      {"measurement": "EC50", "result": 87, "unit": "nM"}
    ]},
    {"smiles": "Cc1ccc(-c2nc(C)ccc2-c2cnn(CC3CCCC3)c2)cc1", "note": "[Example 6, 3-(1-(cyclopentylmethyl)-1H-pyrazol-4-yl)-6-methyl-2-(p-tolyl)pyridine]", "values": [
      {"measurement": "EC50", "result": 72, "unit": "nM"}
    ]},
    {"smiles": "Cc1ccc(-c2cnn(CC3CCCC3)c2)c(-c2cnc3c(c2)ncn3C)n1", "note": "[Example 7, 6-(3-(1-(cyclopentylmethyl)-1H-pyrazol-4-yl)-6-methylpyridin-2-yl)-3-methyl-3H-imidazo[4,5-b]pyridine]", "values": [
      {"measurement": "EC50", "result": 94, "unit": "nM"}
    ]},
    {"smiles": "Cc1ccc(-c2cnn(CC3CCCC3)c2)c(-c2ccc(CCCO)cc2)n1", "note": "[Example 8, 3-(4-(3-(1-(cyclopentylmethyl)-1H-pyrazol-4-yl)-6-methylpyridin-2-yl)phenyl)propan-1-ol]", "values": [
      {"measurement": "EC50", "result": 54, "unit": "nM"}
    ]},
    {"smiles": "Cc1ccc(-c2cnn(CC3CCCC3)c2)c(-c2ccc(C(O)C(F)(F)F)cc2)n1", "note": "(centres unmarked) [Example 9, 1-(4-(3-(1-(cyclopentylmethyl)-1H-pyrazol-4-yl)-6-methylpyridin-2-yl)phenyl)-2,2,2-trifluoroethan-1-ol]", "values": [
      {"measurement": "EC50", "result": 50, "unit": "nM"}
    ]},
    {"smiles": "COc1cnc2cc(-c3nc(C)ccc3-c3cnn(CC4(C)CCCC4)c3)ccc2c1", "note": "[Example 10, 3-methoxy-7-(6-methyl-3-(1-((1-methylcyclopentyl)methyl)-1H-pyrazol-4-yl)pyridin-2-yl)quinoline]", "values": [
      {"measurement": "EC50", "result": 25, "unit": "nM"}
    ]},
    {"smiles": "Cc1ccc(-c2cnn(CC3CCCC3)c2)c(-c2ccc3oc(C)nc3c2)n1", "note": "[Example 11, 5-(3-(1-(cyclopentylmethyl)-1H-pyrazol-4-yl)-6-methylpyridin-2-yl)-2-methylbenzo[d]oxazole]", "values": [
      {"measurement": "EC50", "result": 46, "unit": "nM"}
    ]},
    {"smiles": "COc1cc2ccc(-c3nc(C)ccc3-c3cnn(CC4CCCC4)c3F)cc2nn1", "note": "[Example 12, 7-(3-(1-(cyclopentylmethyl)-5-fluoro-1H-pyrazol-4-yl)-6-methylpyridin-2-yl)-3-methoxycinnoline]", "values": [
      {"measurement": "EC50", "result": 7, "unit": "nM"}
    ]}
  ]
}
